Results as given in patent publication US20190015335A1, “HEPATOPROTECTIVE PARTICLES AND SYSTEMS AND METHODS OF USE THEREOF” (South Dakota Board of Regents, priority 2017, published 2019).

Columns and labels:
B16F1 tumor = assay: Tumor volume in mice bearing B16F1 tumor, DOX with or without pretreatment; assay type: in vivo; details: DOX 10 mg per kg i.v. at day 1, with or without pretreatment, vs PBS only, FIG. 9
[1] = tested on: caspase 3/7 and caspase 9 in AML12 cells; assay: Caspase 3/7 and caspase 9 activity in AML12 cells after doxorubicin; assay type: cell-based, mouse; details: FIG. 6
Method: (§1) MTT assay was performed to quantify AML12 cell survival after 24-hour exposure to 10 μM doxorubicin (DOX). The cells were pretreated with SFN or with MIL-88A-SFN. Control cells include those incubated with DOX without pretreatment, those incubated with MIL-88A-SFN alone without incubation with DOX, and those incubated with phosphate buffered saline (PBS). The activities of caspases and CYP1A1/CYP1B1 of these cells were also measured.

[2] = tested on: alanine aminotransferase (ALT) activity in blood serum; assay: ALT activity in blood serum of mice bearing B16F1 tumor (DOX); assay type: in vivo
Method: (§2) Mice bearing a B16F1 tumor were intravenously administered through the tail vein in different groups of eight: (1) pretreatment with 25 mg of MIL-88A-SFN per kg of mouse at day 0 (corresponding to 3 mg SFN per kg of mouse according to the loading capacity of SFN in MIL-88A), followed by DOX at day 1 at 10 mg per kg of mouse; (2) pretreatment with SFN at 3 mg per kg of mouse at day 0, followed by DOX at day 1 at 10 mg per kg of mouse; (3) PBS injected at day 0, followed by DOX at day 1 at 10 mg per kg of mouse; and (4) PBS injected at both day 0 and day 1. Liver and blood samples were collected and analyzed to identify liver damage and morphology.

[3] = tested on: CYP1A1/CYP1B1 in liver tissues; assay: CYP1A1/CYP1B1 activity in liver tissues of mice bearing B16F1 tumor (DOX); assay type: in vivo
Method: as §2

[4] = tested on: caspase 3/7 in liver tissues; assay: Caspase 3/7 activity in liver tissues of mice bearing B16F1 tumor (DOX); assay type: in vivo
Method: as §2

AML12 cells = assay: MTT assay of AML12 cell survival after doxorubicin; assay type: cell-based, mouse; details: FIG. 5
Method: as §1

[5] = tested on: CYP1A1/CYP1B1 in AML12 cells; assay: CYP1A1/CYP1B1 activity in AML12 cells after doxorubicin; assay type: cell-based, mouse; details: FIG. 7
Method: as §1

liver tissues = assay: Morphological microscopic analysis of liver tissues (DOX); assay type: in vivo, mice
Method: as §2

[6] = tested on: alanine aminotransferase (ALT) activity in blood serum; assay: ALT activity in blood serum of mice bearing B16F1 tumor (DTIC); assay type: in vivo; details: DTIC 120 mg per kg, 4 cycles, FIG. 16
Method: (§3) Mice bearing B16F1 tumor were intravenously administered through the tail vein in different groups of eight: (1) pretreatment with PLGA-SBN (corresponding to 10 mg SBN per kg of mouse), followed by dacarbazine (DTIC) on the next day at a dose of 120 mg per kg mouse; (2) pretreatment with SBN (10 mg per kg), followed by DTIC on the next day at a dose of 120 mg per kg mouse; (3) PBS, followed by DTIC on the next day at a dose of 120 mg per kg mouse; (4) pretreatment with plain PLGA and free (non-encapsulated) SBN (10 mg per kg of mouse), followed by PBS on the next day; and (5) PBS injected at both days (once per day). Liver and blood samples were collected and analyzed to identify liver damage and morphology.

bilirubin in blood serum = assay: Bilirubin concentration in blood serum of mice bearing B16F1 tumor (DTIC); assay type: in vivo; details: DTIC 120 mg per kg, 4 cycles, FIG. 17
Method: as §3

[7] = tested on: caspase 3 in liver tissues; assay: Western blot of pro-caspase 3 and active caspase 3 in liver tissues (DTIC); assay type: in vivo, mice; details: DTIC 120 mg per kg, 4 cycles, FIG. 18
Method: as §3

[8] = tested on: GSTP1 and GSTA3 in B16F1 melanoma tumor tissues; assay: Western blot of GST expression in tumor tissues of mice bearing B16F1 tumor; assay type: in vivo; details: i.v., day 1 and day 2, FIG. 8B
Method: Mice bearing B16F1 tumor were intravenously administered with SFN or MIL-88A-SFN at a dose of 10 mg SFN per kg animal, through the tail vein in groups of eight. The expression levels of GSTP1 and GSTA3 in the liver and tumor tissues were measured by western blot at 24 and 48 h following the intravenous administration. Tissues from the groups of mice treated with PBS or MIL-88A were also analyzed.

[9] = tested on: GST activity in AML12 cells; assay: GST activity assay in AML12 cells; assay type: cell-based, mouse; details: 24 and 48 hours, 10 μM SFN, FIG. 4
Method: The effects of SFN (10 μM), MIL-88A MOF loaded with SFN (denoted as MIL-88A-SFN, 10 μM SFN final concentration), or a corresponding amount of unloaded MIL-88A MOF on the GST activity in AML12 cells were measured at 12, 24, or 48 hours after the treatment. The GST activity assay was performed in the presence of glutathione and 1-chloro-2,4-dinitrobenzene (a GST substrate). Measurements were performed in quadruplicate.

[10] = tested on: GSTP1, GSTA3 and NQO1 in AML12 cells; details: 10 μM SFN, FIG. 3
Method: To validate the protective effect of SFN on a mouse hepatocyte cell line AML12, the expression levels of two glutathione-S-transferase (GST) isoforms, P1 and A3 (denoted as GSTP1 and GSTA3, respectively) and NAD(P)H:quinone oxidoreductase (NQO1), were quantified using western blot analysis after incubating the AML12 cells with SFN for 12, 24, and 36 hours. Beta-actin was used as a loading control.

[11] = pretreatment then 10 μM DOX 24 h

Compound: COc1cccc2c1C(=O)c1c(O)c3c(c(O)c1C2=O)C[C@@](O)(C(=O)CO)C[C@@H]3O[C@H]1C[C@H](N)[C@H](O)[C@H](C)O1 [DOX, doxorubicin]
- tumor volume (B16F1 tumor): lower tumor volumes up to at least 9 days
- caspase activity ([1]; 10 μM DOX alone 24 h): highest caspase activity
- ALT activity in blood serum ([2]; DOX 10 mg per kg i.v., FIG. 10): induced an upregulation
- CYP1A/CYP1B activity in the liver tissues ([3]; DOX 10 mg per kg i.v., FIG. 12): induced an upregulation
- caspase activity in the liver tissues ([4]; DOX 10 mg per kg i.v., FIG. 11): induced an upregulation
- cell survival rate (AML12 cells; 10 μM DOX alone 24 h): lowest survival rate
- level of CYP1A1/CYP1B1 ([5]; 10 μM DOX 24 h): induced an increase
- liver morphology (hepatotoxicity) (liver tissues; DOX 10 mg per kg i.v.): induced moderate cholestasis, focal necrosis, and mononuclear infiltration of sinusoids

Compound: CN(C)/N=N/c1[nH]cnc1C(N)=O [DTIC, dacarbazine]
- ALT activity in blood serum [6]: induced an upregulation
- bilirubin concentration in blood serum (bilirubin in blood serum): induced an upregulation
- caspase 3 activation in liver tissues [7]: induced caspase 3 activation

Compound: C[S+]([O-])CCCCN=C=S (stereo not shown) [SFN, sulforaphane]
- caspase activity after pretreatment [1, 11]: significantly decreased
- DOX-induced upregulation of ALT activity after pretreatment ([2]; 3 mg SFN per kg day 0, DOX 10 mg per kg day 1, FIG. 10): attenuated the upregulation
- DOX-induced upregulation of liver CYP1A/CYP1B activity after pretreatment ([3]; 3 mg SFN per kg day 0, DOX 10 mg per kg day 1, FIG. 12): but not SFN, attenuated the upregulation
- DOX-induced upregulation of liver caspase activity after pretreatment ([4]; 3 mg SFN per kg day 0, DOX 10 mg per kg day 1, FIG. 11): but not SFN, attenuated the upregulation
- GST expression in B16F1 melanoma tumor tissues [8]: neither SFN nor MIL-88A-SFN strongly affected
- apoptosis / cell survival after pretreatment (AML12 cells; [11]): significantly decreased apoptosis
- DOX-induced upregulation of CYP1A1/CYP1B1 after pretreatment [5, 11]: suppressed the upregulation
- DOX-induced liver pathology after pretreatment (liver tissues; 3 mg SFN per kg day 0, DOX 10 mg per kg day 1): attenuated the aforementioned symptoms of hepatotoxicity
- GST activity [9]: equaled the GST activity in the cells treated with SFN-loaded MIL-88A
- expression of phase 2 enzymes GSTP1 and GSTA3 ([10]; 24 h, vs untreated cells): upregulation
- expression of NQO1 [10]: enhanced expression
